Values after ≈ are worked out from the molar mass of the structure shown. Numbered stars: 1 amine (or outer) side, 2 acyl side, 3 side chain; on linkers, the order of the positions; unused ones are H or OH. Bridge positions count the residues as written; N and C are the ends. Square brackets hold non-standard residues; d marks the D form. Peptide text beside a SMILES is read from it. * marks the point of attachment. hTyr(3S-OH,4S-OH,3'-OSO3H) = N[C@H](C(=O)O)[C@H](O)[C@@H](O)c1ccc(O)c(OS(=O)(=O)O)c1; pTerphenylCO(4''-OnC5H11) = CCCCCOc1ccc(-c2ccc(-c3ccc(C(=O)*)cc3)cc2)cc1; Orn(4R-OH,5R-OH) = O=C([C@H](C[C@@H](O)[C@@H](O)N[*:3])N[*:1])[*:2]; hTyr(3S-OH,4S-OH) = N[C@H](C(=O)O)[C@H](O)[C@@H](O)c1ccc(O)cc1; Pro(3S-OH,4S-Me) = C[C@H]1CN[C@H](C(=O)O)[C@H]1O; X1 = CCCCCOc1ccc(-c2cc(-c3ccc(C(=O)*)cc3)no2)cc1; Gln(3R-OH) = NC(=O)C[C@@H](O)[C@H](N)C(=O)O; Hyp = O=C(O)[C@@H]1C[C@@H](O)CN1
How the values were obtained:
[1] = test system: Aspergillus terreus; assay: Antimicrobial activity against Aspergillus terreus clinical isolate after 48 hrs by EUCAST test; format: functional
[2] = test system: Aspergillus terreus; assay: Antimicrobial activity against Aspergillus terreus environmental isolate after 48 hrs by EUCAST test; format: functional

Compound: C[C@@H]1[C@H](O)[C@@H](C)/C=C/C=C/C=C/C=C/C=C/C=C/C=C/[C@H](O[C@@H]2O[C@H](C)[C@@H](O)[C@H](N)[C@@H]2O)C[C@@H]2O[C@](O)(C[C@@H](O)C[C@@H](O)[C@H](O)CC[C@@H](O)C[C@@H](O)CC(=O)O[C@H]1C)C[C@H](O)[C@H]2C(=O)O [AMPHOTERICIN B]
- MIC50 [1]: 2 µg/mL (≈ 2.16 µM)
- MIC90 [1]: 2 µg/mL (≈ 2.16 µM)
- MIC50 [2]: 2 µg/mL (≈ 2.16 µM)
- MIC90 [2]: 2 µg/mL (≈ 2.16 µM)

Compound: CCCCCOc1ccc(-c2ccc(-c3ccc(C(=O)N[C@H]4C[C@@H](O)[C@@H](O)NC(=O)[C@@H]5[C@@H](O)[C@@H](C)CN5C(=O)[C@H]([C@@H](C)O)NC(=O)[C@H]([C@H](O)[C@@H](O)c5ccc(O)cc5)NC(=O)[C@@H]5C[C@@H](O)CN5C(=O)[C@H]([C@@H](C)O)NC4=O)cc3)cc2)cc1 [ANIDULAFUNGIN] ({pTerphenylCO(4''-OnC5H11)}-[Orn(4R-OH,5R-OH)]T[Hyp][hTyr(3S-OH,4S-OH)]T[Pro(3S-OH,4S-Me)]; lactam 1-C)
- MIC50 [1]: 0.015 µg/mL (≈ 0.0132 µM)
- MIC90 [1]: 0.03 µg/mL (≈ 0.0263 µM)
- MIC50 [2]: 0.015 µg/mL (≈ 0.0132 µM)
- MIC90 [2]: 0.03 µg/mL (≈ 0.0263 µM)

Compound: CC[C@H](C)C[C@H](C)CCCCCCCCC(=O)N[C@H]1C[C@@H](O)[C@@H](NCCN)NC(=O)[C@@H]2[C@@H](O)CCN2C(=O)[C@H]([C@H](O)CCN)NC(=O)[C@H]([C@H](O)[C@@H](O)c2ccc(O)cc2)NC(=O)[C@@H]2C[C@@H](O)CN2C(=O)[C@H]([C@@H](C)O)NC1=O [CASPOFUNGIN]
- MIC50 [1]: 1 µg/mL (≈ 0.915 µM)
- MIC90 [1]: 2 µg/mL (≈ 1.83 µM)
- MIC50 [2]: 1 µg/mL (≈ 0.915 µM)
- MIC90 [2]: 2 µg/mL (≈ 1.83 µM)

Compound: CCC(C)n1ncn(-c2ccc(N3CCN(c4ccc(OCC5COC(Cn6cncn6)(c6ccc(Cl)cc6Cl)O5)cc4)CC3)cc2)c1=O (stereo unspecified) [ITRACONAZOLE]
- MIC50 [1]: 0.125 µg/mL (≈ 0.177 µM)
- MIC90 [1]: 0.5 µg/mL (≈ 0.709 µM)
- MIC50 [2]: 0.125 µg/mL (≈ 0.177 µM)
- MIC90 [2]: 0.5 µg/mL (≈ 0.709 µM)

Compound: CCCCCOc1ccc(-c2cc(-c3ccc(C(=O)N[C@H]4C[C@@H](O)[C@@H](O)NC(=O)[C@@H]5[C@@H](O)[C@@H](C)CN5C(=O)[C@H]([C@H](O)CC(N)=O)NC(=O)[C@H]([C@H](O)[C@@H](O)c5ccc(O)c(OS(=O)(=O)O)c5)NC(=O)[C@@H]5C[C@@H](O)CN5C(=O)[C@H]([C@@H](C)O)NC4=O)cc3)no2)cc1 [MICAFUNGIN] (X1-[Orn(4R-OH,5R-OH)]T[Hyp][hTyr(3S-OH,4S-OH,3'-OSO3H)][Gln(3R-OH)][Pro(3S-OH,4S-Me)]; lactam 1-C)
- MIC50 [1]: 0.015 µg/mL (≈ 0.0118 µM)
- MIC90 [1]: 0.03 µg/mL (≈ 0.0236 µM)
- MIC50 [2]: 0.015 µg/mL (≈ 0.0118 µM)
- MIC90 [2]: 0.03 µg/mL (≈ 0.0236 µM)

Compound: CC[C@@H]([C@H](C)O)n1ncn(-c2ccc(N3CCN(c4ccc(OC[C@@H]5CO[C@@](Cn6cncn6)(c6ccc(F)cc6F)C5)cc4)CC3)cc2)c1=O [POSACONAZOLE]
- MIC50 [1]: 0.12 µg/mL (≈ 0.171 µM)
- MIC90 [1]: 0.12 µg/mL (≈ 0.171 µM)
- MIC50 [2]: 0.12 µg/mL (≈ 0.171 µM)
- MIC90 [2]: 0.12 µg/mL (≈ 0.171 µM)

Compound: C[C@@H](c1nc(-c2ccc(C#N)cc2)cs1)[C@](O)(Cn1cncn1)c1ccc(F)cc1F [RAVUCONAZOLE]
- MIC50 [1]: 1 µg/mL (≈ 2.29 µM)
- MIC90 [1]: 2 µg/mL (≈ 4.57 µM)
- MIC50 [2]: 1 µg/mL (≈ 2.29 µM)
- MIC90 [2]: 2 µg/mL (≈ 4.57 µM)

Compound: CN(C/C=C/C#CC(C)(C)C)Cc1cccc2ccccc12 [TERBINAFINE]
- MIC50 [1]: 0.25 µg/mL (≈ 0.858 µM)
- MIC90 [1]: 0.5 µg/mL (≈ 1.72 µM)
- MIC50 [2]: 0.25 µg/mL (≈ 0.858 µM)
- MIC90 [2]: 0.5 µg/mL (≈ 1.72 µM)

Compound: C[C@@H](c1ncncc1F)[C@](O)(Cn1cncn1)c1ccc(F)cc1F [VORICONAZOLE]
- MIC50 [1]: 1 µg/mL (≈ 2.86 µM)
- MIC90 [1]: 2 µg/mL (≈ 5.73 µM)
- MIC50 [2]: 1 µg/mL (≈ 2.86 µM)
- MIC90 [2]: 2 µg/mL (≈ 5.73 µM)

— ChEMBL document CHEMBL1629631, “In vitro activities of various antifungal drugs against Aspergillus terreus: Global assessment using the methodology of the European committee on antimicrobial susceptibility testing” (2009)
